#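 Growth conditions: 96-well plates. Treatment: test compound, 48 hours, 5 concentrations. Analysis: linear interpolation between bracketing concentrations; unreached endpoints set to highest concentration. At the GI50, growth is halved.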 Calls of active or inactive are those of the source. Cut-off read from the data, not from the text of the source: active = GI50 up to about 1.1 µM and inactive = higher.
# Legend:
# Assay in all cases: inhibition of tumour cell growth, NCI panel, 48 h
# T47D = system: T47D
# Hs-578T = system: Hs-578T
# EKVX = system: EKVX
# BT-549 = system: BT-549
# PC-3 = system: PC-3
# HCC 2998 = system: HCC 2998
# IGROV-1 = system: IGROV-1
# SNB-19 = system: SNB-19
# ACHN = system: ACHN
# MCF7 = system: MCF7
# LOX IMVI = system: LOX IMVI
# CAKI-1 = system: CAKI-1
# SN12C = system: SN12C
# SK-OV-3 = system: SK-OV-3
# MDA-N = system: MDA-N
# M14 = system: M14
# 786-0 = system: 786-0
# SW-620 = system: SW-620
# RPMI-8226 = system: RPMI-8226
Compound,GI50 (T47D),GI50 (Hs-578T),GI50 (EKVX),GI50 (BT-549),GI50 (PC-3),GI50 (HCC 2998),GI50 (IGROV-1),GI50 (SNB-19),GI50 (ACHN),GI50 (MCF7),GI50 (LOX IMVI),GI50 (CAKI-1),GI50 (SN12C),GI50 (SK-OV-3),GI50 (MDA-N),GI50 (M14),GI50 (786-0),GI50 (SW-620),GI50 (RPMI-8226)
O=C(CCc1ccc(O)cc1)NCCc1cccc(OCc2ccccc2)c1,21.7 µM (inactive),35.3 µM (inactive),31.5 µM (inactive),16.7 µM (inactive),20.1 µM (inactive),24.4 µM (inactive),28.5 µM (inactive),69 µM (inactive),33.2 µM (inactive),27.9 µM (inactive),15.6 µM (inactive),48 µM (inactive),75.3 µM (inactive),27.7 µM (inactive),25.1 µM (inactive),17.8 µM (inactive),40.4 µM (inactive),–,–
CCCCn1cnnc1NS(=O)(=O)c1cc(C)c(Cl)cc1SCC(=O)O,> 10 µM (inactive),> 10 µM (inactive),> 10 µM (inactive),> 10 µM (inactive),> 10 µM (inactive),> 10 µM (inactive),> 10 µM (inactive),> 10 µM (inactive),> 10 µM (inactive),–,> 10 µM (inactive),> 10 µM (inactive),> 10 µM (inactive),> 10 µM (inactive),> 10 µM (inactive),> 10 µM (inactive),> 10 µM (inactive),> 10 µM (inactive),> 10 µM (inactive)
COc1ccc2c(c1)[n+]([O-])c(C#N)c(N1CCN(c3ccc([N+](=O)[O-])cc3)CC1)[n+]2[O-],2.01 µM (inactive),2.55 µM (inactive),2.74 µM (inactive),3.69 µM (inactive),3.34 µM (inactive),> 100 µM (inactive),1.49 µM (inactive),5.22 µM (inactive),2.7 µM (inactive),–,2.36 µM (inactive),6 µM (inactive),6.37 µM (inactive),8.09 µM (inactive),7.35 µM (inactive),4.52 µM (inactive),8.63 µM (inactive),5.55 µM (inactive),–
CC(=O)O[C@H]1CC[C@@]2(C)C(=CC[C@@H]3[C@@H]2CC[C@]2(C)Nc4c(cnn4S(C)(=O)=O)C[C@@H]32)C1,36.1 µM (inactive),62.4 µM (inactive),–,23.3 µM (inactive),39.1 µM (inactive),> 100 µM (inactive),97.1 µM (inactive),> 100 µM (inactive),–,28.9 µM (inactive),–,49.9 µM (inactive),> 100 µM (inactive),> 100 µM (inactive),60.1 µM (inactive),27.8 µM (inactive),–,–,32.3 µM (inactive)
COc1cc(/C=C/c2cc(=O)cc(/C=C/c3ccc(O)c(OC)c3)o2)ccc1O,15.3 µM (inactive),24.4 µM (inactive),> 70 µM (inactive),99.8 µM (inactive),> 85.9 µM (inactive),13.6 µM (inactive),> 100 µM (inactive),> 92 µM (inactive),48.1 µM (inactive),6.27 µM (inactive),29.6 µM (inactive),64.3 µM (inactive),> 60.3 µM (inactive),76.4 µM (inactive),–,> 100 µM (inactive),23.3 µM (inactive),> 35.5 µM (inactive),1.1 µM (active)
CC(=O)OCCN(C1=NCCN1)/[N+](C=c1ccc(=C=[N-])cc1)=C/c1ccc(C#N)cc1,> 100 µM (inactive),> 100 µM (inactive),> 100 µM (inactive),> 100 µM (inactive),> 100 µM (inactive),> 100 µM (inactive),> 100 µM (inactive),> 100 µM (inactive),> 100 µM (inactive),> 100 µM (inactive),> 100 µM (inactive),> 100 µM (inactive),> 100 µM (inactive),> 100 µM (inactive),> 100 µM (inactive),> 100 µM (inactive),> 100 µM (inactive),> 100 µM (inactive),–
COc1nc2ncc([C@@H](OC(C)=O)[C@@H](COC(C)=O)OC(C)=O)nc2c(=O)n1C,> 100 µM (inactive),> 100 µM (inactive),> 100 µM (inactive),> 100 µM (inactive),> 100 µM (inactive),–,> 100 µM (inactive),> 100 µM (inactive),> 100 µM (inactive),> 100 µM (inactive),> 100 µM (inactive),> 100 µM (inactive),> 100 µM (inactive),> 100 µM (inactive),> 100 µM (inactive),> 100 µM (inactive),> 100 µM (inactive),> 100 µM (inactive),96.8 µM (inactive)
COC(=O)C1c2c(c3ccccc3n2C(=O)OC)CCN2CCC1C(S(=O)(=O)c1ccccc1)C2=O (configuration not stated),> 100 µM (inactive),> 100 µM (inactive),> 100 µM (inactive),> 100 µM (inactive),> 100 µM (inactive),–,> 100 µM (inactive),94.6 µM (inactive),–,> 100 µM (inactive),> 100 µM (inactive),> 100 µM (inactive),> 100 µM (inactive),> 100 µM (inactive),> 100 µM (inactive),> 100 µM (inactive),> 100 µM (inactive),> 100 µM (inactive),30.6 µM (inactive)
